From PubChem BioAssay (NCI) come the findings set out here.

What all share (assay): DTP human tumour cell line panel, 48 h
The subject of experiment [1] is EKVX NSCLC.
The subject of experiment [2] is HOP-92 NSCLC.
Experiment [3] relates to NCI-H460 lung.
Experiment [4] has as its system NCI-H522 lung.
Experiment [5] relates to U251 CNS.
Experiment [6] deals with HCT-15 colon.
Experiment [7] relates to LOX IMVI melanoma.
Experiment [8] relates to CAKI-1 renal.
In experiment [9] the test system is OVCAR-5 ovarian.
The subject of experiment [10] is HCC-2998 colon.

The term GI50 denotes the concentration at which growth is held to half of that of the control. What is called TGI is the concentration giving total growth inhibition. A higher TGI goes with less potent growth arrest.

The structures appear in SMILES notation.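 Interpolation was linear, between the two tested concentrations surrounding the appropriate level; five concentrations were tested over 48 hours in 96-well plates. The concentration for 50% growth inhibition is given as GI50. TGI marks complete inhibition of growth.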

Turning to `c1cc[c]([Ge]([O]c2cccc3cccnc23)([c]2ccccc2)[c]2ccccc2)cc1`, the GI50 was 3.42 µM in experiment [1]; 12.4 µM in experiment [2]; 3.37 µM in [3]; 1.9 µM in experiment [4]; 3.83 µM in experiment [5]; 3.56 µM in experiment [6]. Further, the GI50 was 3.92 µM in experiment [7], 10.8 µM in [8], 15.9 µM in experiment [9] and 2.54 µM in experiment [10]. Besides, the TGI in [1] is 12.9 µM; in [2] it was 25.5 µM; in experiment [3], 12.2 µM; in [4], 3.74 µM; in experiment [5], 13.4 µM; in experiment [6] it was 12.4 µM. Also, the TGI amounted to 13.2 µM in [7], 28.9 µM in [8], 29.5 µM in experiment [9] and 6.16 µM in experiment [10].
For `COc1ccc(-c2cnc(-c3ccc(OC)cc3)n2-c2cc(OC)c(OC)c(OC)c2)cc1`, the GI50 in [1] was 36.8 µM; in experiment [2], 19.7 µM; in [3] it was 30.7 µM; in experiment [4] it was 29.5 µM; in [5], 24.4 µM; in [6] it was 36 µM. Further, the GI50 was 34.5 µM in experiment [7], 23.8 µM in experiment [8], 45.9 µM in experiment [9] and 45.7 µM in experiment [10]. In addition, the TGI in experiment [1] was greater than 100 µM; in experiment [2] it was 52.1 µM; in [3] it was greater than 100 µM; in experiment [4] it was greater than 100 µM; in experiment [5], 69.2 µM; in experiment [6], greater than 100 µM. Further, the TGI in experiment [7] is greater than 100 µM; in [8], 80.2 µM; in experiment [9] it was greater than 100 µM; in experiment [10] it was greater than 100 µM.
Regarding `COc1ccc(OC)c(N2CC(O)=C(c3nc4ccccc4s3)C2=N)c1`, the GI50 was 67.3 µM in experiment [1]; 40.6 µM in experiment [2]; 63 µM in [3]; 17.9 µM in experiment [4]; 51.5 µM in experiment [5]; 5.22 µM in experiment [6]. In addition, the GI50 in [7] is 45.4 µM; in experiment [8], 76.6 µM; in experiment [9], greater than 100 µM; in [10], 32.5 µM. Moreover, the TGI in [1] is greater than 100 µM; in experiment [2], greater than 100 µM; in [3] it was greater than 100 µM; in [4] it was 78.1 µM; in experiment [5], greater than 100 µM; in experiment [6], greater than 100 µM. The total growth inhibition concentration (TGI) in experiment [7], in experiment [8], in experiment [9] and in experiment [10] was greater than 100 µM in each case.
With `CC(C)C1=Cc2ccc3c(c2C(=O)C1=O)CCCC3`, the TGI in experiment [1] is 19.2 µM; in [2] it was 2.27 µM; in [3] it was 26.6 µM; in [4], 18.1 µM; in [5], 42.4 µM; in [6], 9.03 µM. In addition, the TGI in experiment [7] amounted to 25.6 µM; in experiment [8], 2.15 µM; in [9], 28.6 µM; in [10] it was 30.9 µM.
`COc1cc(OC)c(C(=O)/C=C/c2ccc(C#N)cc2)c(OC)c1`: the GI50 in experiment [1] was 2.07 µM; in experiment [2], 1.34 µM; in experiment [3], 1.35 µM; in experiment [4], 1.04 µM; in experiment [5] it was 1.81 µM; in [6], 1.05 µM. Further, the GI50 in experiment [7] was 1.37 µM; in experiment [8], 1.73 µM; in experiment [9] it was 2.13 µM; in experiment [10], 1.9 µM. The TGI in experiment [1] was greater than 50 µM; in [2], 4.96 µM; in [3] it was 3.94 µM; in experiment [4], 2.92 µM; in experiment [5], 7.05 µM; in experiment [6], 4.19 µM. Besides, the TGI in experiment [7] worked out at 5.47 µM; in experiment [8], 8.78 µM; in experiment [9], 8.4 µM; in experiment [10], 6.51 µM.
On to `O=C1CN=C(c2ccc[nH]2)c2cc(Cl)ccc2N1`, for which the GI50 in [1] was greater than 100 µM; in experiment [2], 12.2 µM; in experiment [3] it was 4.38 µM; in experiment [4] it was 25.2 µM; in experiment [5], 71.8 µM; in experiment [6], 19.1 µM. For the same compound, the GI50 in [7] is 17.9 µM; in [8], greater than 100 µM; in experiment [9], greater than 100 µM; in experiment [10], greater than 100 µM. Moreover, the TGI in [1], in experiment [2], in experiment [3], in [4], in [5] and in experiment [6] was greater than 100 µM in each case. Moreover, the TGI in experiment [7], in experiment [8], in [9] and in experiment [10] was greater than 100 µM each time.
For the compound `CC1(C)C(=O)/C=C\C(=O)C(C)(C)C2=CC=C(O2)C(C)(C)C(=O)C(Br)C(Br)C(=O)C(C)(C)C2=CC=C1O2` (stereo not given), the TGI in [1] was greater than 100 µM; in [2], greater than 100 µM; in experiment [3], greater than 100 µM; in experiment [4] it was 59.6 µM; in [5] it was greater than 81.8 µM; in experiment [6], greater than 100 µM. Moreover, the TGI in experiment [7] is greater than 59.6 µM; in [8], greater than 100 µM; in experiment [9], greater than 100 µM; in experiment [10], greater than 100 µM.
